From patent US20060293223A1 (Eli Lilly and Company Patent Division, priority 2003, published 2006)
Positions of bridges follow the written chain, without caps; N, C: chain ends. Non-standard residues stand in square brackets, D forms with d. hCys = N[C@@H](CCS)C(=O)O

Test system: MC1/MC4
Conditions: ratio MC1/MC4
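Note: ratio of EC50 values obtained at MC1 versus MC4 receptors, with MC1 potency measured by luciferase reporter activity in stably transfected cells expressing human MC1.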

Substance | MC1/MC4 selectivity
Ac-Tyr-Arg-cyclo[Cys-Glu-His-D-Phe-Arg-Trp-Cys]-NH2 [Compound 72] | 22.31
Ac-Tyr-Arg-cyclo[Cys-Glu-His-D-Phe-Arg-Trp-Cys]-NH-(CH2)6-NH2 [Compound 117] | 1.00
Ac-Tyr-Arg-cyclo[Cys-Glu-His-D-Phe-Arg-Trp-Cys]-OH [Compound 73] | 12.77
Ac-Tyr-Arg-cyclo[Cys-Glu-His-D-Phe-Arg-Trp-Cys]-Ser alcohol [Compound 116] | 4.00
Ac-Tyr-Arg-cyclo[Cys-Glu-His-D-Phe-Arg-Trp-Cys]-Ser-Pro alcohol [Compound 120] | 1.00
Ac-Tyr-Arg-cyclo[Cys-Glu-His-D-Phe-Arg-Trp-Cys]-glycinol [Compound 114] | 4.00
Ac-Tyr-Arg-cyclo[Cys-Glu-His-D-Phe-Arg-Trp-hCys]-NH2 [Compound 192] | 1.00
Ac-Tyr-Arg-cyclo[D-Cys-Glu-His-D-Phe-Arg-Trp-Cys]-NH2 [Compound 80] | 8.24
Ac-Tyr-Arg-cyclo[hCys-Glu-His-D-Phe-Arg-Trp-Cys]-NH2 [Compound 166] | 9.38
Ac-Tyr-Arg-cyclo[hCys-Glu-His-D-Phe-Arg-Trp-hCys]-NH2 [Compound 197] | 1.00
Ac-Tyr-Cit-cyclo[Cys-Glu-(1-Me-His)-D-Phe-Arg-Trp-Cys]-NH2 [Compound 125] | 25.08
Ac-Tyr-Cit-cyclo[Cys-Glu-His-D-Phe-Arg-Trp-Cys]-NH2 [Compound 124] | 18.11
Ac-Tyr-D-Arg-cyclo[Cys-Glu-His-D-Phe-Arg-Trp-Cys]-NH2 [Compound 79] | 21.79
Ac-Tyr-hArg-cyclo[Cys-Glu-His-D-Phe-Arg-Trp-Cys]-NH2 [Compound 126] | 22.64
Ac-VCEH[dF]RWC-NH2 (disulfide 2-8) [Compound 63] | 30.51
Ac-YKCEH[dF]RWC-NH2 (disulfide 3-9) [Compound 128] | 22.46
Ac-YRCDH[dF]RWC-NH2 (disulfide 3-9) [Compound 7] | 15.00
Ac-YRCEH[dF]RWCE-NH2 (disulfide 3-9) [Compound 118] | 4.52
Ac-YRCEH[dF]RWCKP-NH2 (disulfide 3-9) [Compound 121] | 0.74
Ac-YRCEH[dF]RWCRF-NH2 (disulfide 3-9) [Compound 123] | 2.42
Ac-YRCEH[dF]RWCSP-NH2 (disulfide 3-9) [Compound 119] | 0.86
Ac-YRCFH[dF]RWC-NH2 (disulfide 3-9) [Compound 19] | 7.64
Ac-YRCGH[dF]RWC-NH2 (disulfide 3-9) [Compound 12] | 6.72
Ac-YRCIH[dF]RWC-NH2 (disulfide 3-9) [Compound 14] | 12.54
Ac-YRCMH[dF]RWC-NH2 (disulfide 3-9) [Compound 18] | 8.15
Ac-YRCNH[dF]RWC-NH2 (disulfide 3-9) [Compound 5] | 5.00
Ac-YRCPH[dF]RWC-NH2 (disulfide 3-9) [Compound 20] | 4.81

Substance | MC1/MC4 selectivity
Ac-YRCQH[dF]RWC-OH (disulfide 3-9) [Compound 9] | 10.00
Ac-YRCQH[dF]RWC-OMe (disulfide 3-9) [Compound 10] | 9.50
Ac-YRCRH[dF]RWC-NH2 (disulfide 3-9) [Compound 4] | 0.26
Ac-YRCSH[dF]RWC-NH2 (disulfide 3-9) [Compound 21] | 10.27
Ac-YRCTH[dF]RWC-NH2 (disulfide 3-9) [Compound 22] | 6.85
Ac-YRCVH[dF]RWC-NH2 (disulfide 3-9) [Compound 25] | 11.00
Ac-YRCWH[dF]RWC-NH2 (disulfide 3-9) [Compound 23] | 10.54
Ac-YRCYH[dF]RWC-NH2 (disulfide 3-9) [Compound 24] | 8.00
Ac-YR[hCys]H[dF]RWC-NH2 (disulfide 3-8) [Compound 164] | 7.79
Ac-YR[hCys]H[dF]RWC-OH (disulfide 3-8) [Compound 165] | 13.53
Ac-YR[hCys]H[dF]RW[hCys]-NH2 (disulfide 3-8) [Compound 196] | 4.98
Ac-YSCEH[dF]RWC-NH2 (disulfide 3-9) [Compound 129] | 22.16
Ac-YVCEH[dF]RWC-NH2 (disulfide 3-9) [Compound 130] | 26.88
Ac-[hCys]H[dF]RW[hCys]-NH2 (disulfide 1-6) [Compound 193] | 26.59
Ac-cyclo(S—CH2—S)[Cys-His-D-Phe-Arg-Trp-Cys]-NH2 [Compound 198] | 13.07
Ac-cyclo[Cys-Glu-(1-Me-His)-D-Phe-Arg-Trp-Cys]-NH2 [Compound 34] | 11.52
Ac-cyclo[Cys-Glu-His-(4-Br-D-Phe)-Arg-Trp-Cys]-NH2 [Compound 33] | 79.54
Ac-cyclo[Cys-Glu-His-(4-Cl-D-Phe)-Arg-Trp-Cys]-NH2 [Compound 32] | 66.88
Ac-cyclo[Cys-Glu-His-(4-F-D-Phe)-Arg-Trp-Cys]-NH2 [Compound 31] | 57.02
Ac-cyclo[Cys-His-(4-Cl-D-Phe)-Arg-Trp-hCys]-NH2 [Compound 185] | 269.59
Ac-cyclo[Cys-His-D-Phe-Arg-Trp-hCys]-NH2 [Compound 183] | 53.39
Ac-cyclo[hCys-His-(4-Cl-D-Phe)-Arg-Trp-Cys]-NH2 [Compound 140] | 128.15
Ac-cyclo[hCys-His-(4-Cl-D-Phe)-Arg-Trp-penicillamine]-NH2 [Compound 169] | 1804.00
Ac-cyclo[hCys-His-(4-F-D-Phe)-Arg-Trp-Cys]-NH2 [Compound 139] | 44.29
Ac-cyclo[hCys-His-(β-cyclohexyl-D-Ala)-Arg-Trp-Cys]-NH2 [Compound 167] | 3.36
Ac-cyclo[hCys-His-D-Phe-Arg-Trp-Cys]-OH [Compound 138] | 38.81
Ac-cyclo[hCys-His-D-Phe-Arg-Trp-penicillamine]-NH2 [Compound 168] | 212.71

Substance | MC1/MC4 selectivity
Ac-diaminobutyryl-cyclo[Cys-Glu-His-D-Phe-Arg-Trp-Cys]-NH2 [Compound 44] | 15.00
Ac-diaminopropionyl-cyclo[Cys-Glu-His-D-Phe-Arg-Trp-Cys]-NH2 [Compound 43] | 11.00
Ac-hArg-cyclo[Cys-Glu-His-D-Phe-Arg-Trp-Cys]-NH2 [Compound 54] | 20.85
Ac-nLeu-cyclo[Cys-Glu-His-D-Phe-Arg-Trp-Cys]-NH2 [Compound 60] | 29.95
Ac-nLeu-cyclo[Cys-Glu-His-D-Phe-Arg-Trp-Cys]-Ser-Pro-NH2 [Compound 61] | 1.70
Ac-nLeu-cyclo[hCys-His-D-Phe-Arg-Trp-Cys]-NH2 [Compound 160] | 0.90
Arg-cyclo[Cys-Glu-His-D-Phe-Arg-Trp-Cys]-OH [Compound 45] | 30.47
Arg-cyclo[Cys-His-(4-Cl-D-Phe)-Arg-Trp-hCys]-NH2 [Compound 188] | 29.56
Arg-cyclo[Cys-His-(4-F-D-Phe)-Arg-Trp-hCys]-NH2 [Compound 187] | 20.76
Arg-cyclo[hCys-(1-Me-D-His)-D-Phe-Arg-Trp-Cys]-NH2 [Compound 157] | 17.60
Arg-cyclo[hCys-(1-Me-His)-D-Phe-Arg-Trp-Cys]-NH2 [Compound 156] | 158.41
Arg-cyclo[hCys-His-D-Phe-Arg-Trp-hCys]-NH2 [Compound 194] | 10.61
N-(2-naphthalenesulfonyl)-D-Arg-cyclo[Cys-Glu-His-D-Phe-Arg-Trp-Cys]-NH2 [Compound 64] | 4.12
N-(2-naphthalenesulfonyl)-cyclo[hCys-His-D-Phe-Arg-Trp-Cys]-NH2 [Compound 151] | 14.00
N-(2-naphthalenesulfonylamino-4-oxo-butyryl)-D-Arg-cyclo[Cys-Glu-His-D-Phe-Arg-Trp-Cys]-NH2 [Compound 65] | 2.70
N-(4-phenylsulfonamido-4-oxo-butyryl)-cyclo[hCys-His-D-Phe-Arg-Trp-Cys]-NH2 [Compound 152] | 7.73
N-butyryl-cyclo[Cys-Glu-His-D-Phe-Arg-Trp-Cys]-NH2 [Compound 38] | 28.16
N-cyclobutanecarbonyl-cyclo[hCys-His-D-Phe-Arg-Trp-Cys]-NH2 [Compound 142] | 35.55
N-cyclohexanecarbonyl-cyclo[hCys-His-D-Phe-Arg-Trp-Cys]-NH2 [Compound 144] | 14.85
N-cyclohexanecarbonyl-cyclo[hCys-His-D-Phe-Arg-Trp-penicillamine]-NH2 [Compound 172] | 26.45
N-cyclopentanecarbonyl-cyclo[hCys-His-D-Phe-Arg-Trp-Cys]-NH2 [Compound 143] | 19.27
N-cyclopentanecarbonyl-cyclo[hCys-His-D-Phe-Arg-Trp-penicillamine]-NH2 [Compound 171] | 75.11
N-cyclopropanecarbonyl-cyclo[hCys-His-D-Phe-Arg-Trp-Cys]-NH2 [Compound 141] | 83.00
N-glutaryl-Tyr-Arg-cyclo[Cys-Glu-His-D-Phe-Arg-Trp-Cys]-NH2 [Compound 75] | 6.00
N-glutaryl-Tyr-Arg-cyclo[Cys-Glu-His-D-Phe-Arg-Trp-Cys]-OH [Compound 76] | 6.00
N-hexanoyl-cyclo[hCys-His-D-Phe-Arg-Trp-Cys]-NH2 [Compound 145] | 3.82
